Results on 13 compounds are retold here after patent US7279477B2 (Chugai Seiyaku Kabushiki Kaisha, priority 2001, dated 2007).

Like-named read-outs stand apart in the source and are kept apart here.

For data set [1], the target named is T1, malonyl-CoA decarboxylase prepared from rat heart (Rattus norvegicus, UniProt Q920F5).
T1 construct: from tissue; host or cells: rat heart
T1 sequence (Q920F5 39-492): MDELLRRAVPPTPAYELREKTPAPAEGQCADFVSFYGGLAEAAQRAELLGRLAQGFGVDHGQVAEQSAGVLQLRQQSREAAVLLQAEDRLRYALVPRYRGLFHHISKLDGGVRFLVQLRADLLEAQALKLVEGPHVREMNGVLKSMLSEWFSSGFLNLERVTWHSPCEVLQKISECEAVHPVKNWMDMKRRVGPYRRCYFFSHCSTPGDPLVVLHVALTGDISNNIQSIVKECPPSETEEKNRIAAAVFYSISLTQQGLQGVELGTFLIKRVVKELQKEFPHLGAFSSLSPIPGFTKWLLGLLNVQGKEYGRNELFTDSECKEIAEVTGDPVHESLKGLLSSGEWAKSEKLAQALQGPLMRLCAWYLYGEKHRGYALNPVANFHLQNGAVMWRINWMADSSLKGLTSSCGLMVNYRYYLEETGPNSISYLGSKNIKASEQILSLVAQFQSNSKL
As to the kind of experiment: In vitro MCD inhibitory assay (spectrophotometric, 96 well). It is filed as biochemical. The procedure: The following reagents are added into a 96 well titer plate: Tris-HCl buffer, 20 μL, DTE, 10 μL; I-malate, 20 μL; NAD, 10 μL; NADH, 25 μL; water, 80 μL; malic dehydrogenase, 5 μL. The contents are mixed and incubated for 2 min followed by the addition of 5 μL of citrate synthase.

Data set [2] has as its target T2, carnitine palmitoyltransferase-I (CPT-I) muscle (M) isoform (Homo sapiens, UniProt Q92523).
T2 sequence (Q92523 1-772): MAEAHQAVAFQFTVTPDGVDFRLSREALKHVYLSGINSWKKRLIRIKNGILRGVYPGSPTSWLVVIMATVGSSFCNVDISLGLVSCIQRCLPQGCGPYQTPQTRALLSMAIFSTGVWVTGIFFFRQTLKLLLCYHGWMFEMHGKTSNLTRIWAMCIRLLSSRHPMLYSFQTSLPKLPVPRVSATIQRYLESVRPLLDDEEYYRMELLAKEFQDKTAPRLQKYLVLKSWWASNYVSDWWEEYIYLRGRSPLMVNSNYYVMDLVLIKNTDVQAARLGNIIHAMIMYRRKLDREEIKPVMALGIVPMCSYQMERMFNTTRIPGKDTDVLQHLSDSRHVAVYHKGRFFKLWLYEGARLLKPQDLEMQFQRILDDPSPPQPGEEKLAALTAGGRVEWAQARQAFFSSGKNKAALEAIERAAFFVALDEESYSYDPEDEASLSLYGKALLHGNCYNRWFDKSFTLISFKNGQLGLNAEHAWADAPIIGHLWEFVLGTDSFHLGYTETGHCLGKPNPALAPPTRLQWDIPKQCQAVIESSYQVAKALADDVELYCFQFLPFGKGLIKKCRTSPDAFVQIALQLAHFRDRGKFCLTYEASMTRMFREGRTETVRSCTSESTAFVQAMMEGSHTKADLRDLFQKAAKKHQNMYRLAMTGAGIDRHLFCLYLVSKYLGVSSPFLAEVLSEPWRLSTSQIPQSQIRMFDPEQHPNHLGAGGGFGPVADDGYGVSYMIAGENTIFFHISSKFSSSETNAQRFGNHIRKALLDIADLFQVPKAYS
As to conditions: read-out: IC50 of malonyl-CoA inhibition of CPT-I; cited from earlier work.

A further data set relates to breast carcinoma cells. Conditions: Pizer et al.; cited from earlier work.
[3] abbreviates: MCD from rat heart, concentration causing 50% inhibition of MCD activity, read-out: IC50 of the MCD inhibitors.

For orientation: IC50 means the concentration that inhibits the measured activity by half. As for `OC(c1ccc(N(Cc2ccc(C(F)(F)F)cc2)C(=S)N2CCOCC2)cc1)(C(F)(F)F)C(F)(F)F` [Example 1, morpholine-4-carbothioic acid [4-(2,2,2-trifluoro-1-hydroxy-1-trifluoromethyl-ethyl)-phenyl]-(4-trifluoromethyl-benzyl)-amide], the IC50 in data set [1] (setting [3]) was 123 nM.

As for `N#CCCCCN(C(=S)N1CCOCC1)c1ccc(C(O)(C(F)(F)F)C(F)(F)F)cc1` [Example 2, N-(4-cyanobutyl)-N-{4-[2,2,2-trifluoro-1-hydroxy-1-(trifluoromethyl)ethyl]phenyl}morpholine-4-carbothioamide], the IC50 in data set [1] (setting [3]) worked out at 42 nM.

Take `CCCCN(C(=N)N(CC)CC)c1ccc(C(O)(C(F)(F)F)C(F)(F)F)cc1.Cl` [Example 4, butyl {4-[2,2,2-trifluoro-1-hydroxy-1-(trifluoromethyl)ethyl]phenyl}amino)(diethylamino)methaniminium chloride]: the IC50 in data set [1] (setting [3]) is 164 nM.

Usually melting point stands for the temperature, or range, at which the solid turns liquid. Turning to `CCCCN(C(=N)N(CC)CC)c1ccc(C(O)(C(F)(F)F)C(F)(F)F)cc1.Cl` [Example 4], the melting point is 217.1 to 219.2 °C (dec.).

On to `COC(=O)CCCCN(C(=S)N1CCOCC1)c1ccc(C(O)(C(F)(F)F)C(F)(F)F)cc1` [Example 5-48], for which, in data set [1] (setting [3]), the IC50 worked out at 45 nM.

For `CCCCN(C(=S)N(CC)CC)c1ccc(C(O)(C(F)(F)F)C(F)(F)F)cc1` [Example 5-108], in data set [1] (setting [3]), the IC50 is 147 nM.

For `CC(C)(C)OC(=O)CCNC(=O)C1CC(c2ccc(C(O)(C(F)(F)F)C(F)(F)F)cc2)=NO1` (stereo not drawn) [Example 12, 1,1-dimethylethyl N-[(3-{4-[2,2,2-trifluoro-1-hydroxy-1-(trifluoromethyl)ethyl]phenyl}-4,5-dihydroisoxazol-5-yl)carbonyl]-beta-alaninate], the IC50 in data set [1] (setting [3]) stood at 515 nM.

On to `CCCC(O)(CCC)c1ccc(C(O)(C(F)(F)F)C(F)(F)F)cc1` [Example 15], for which the IC50 in data set [1] (setting [3]) amounted to 127 nM.

In the case of `CCCCNC(=O)c1c(-c2ccccc2)nc(-c2ccc(C(O)(C(F)(F)F)C(F)(F)F)cc2)n1CCC` [Example 22, N-butyl-4-phenyl-1-propyl-2-{4-[2,2,2-trifluoro-1-hydroxy-1-(trifluoromethyl)ethyl]phenyl}-1H-imidazole-5-carboxamide], the IC50 in data set [1] (setting [3]) amounted to 354 nM.

With `CCCCNC(=O)c1c(-c2ccccc2)nc(-c2ccc(C(O)(C(F)(F)F)C(F)(F)F)cc2)n1C(C)C` [Example 23-11], the IC50 in data set [1] (setting [3]) is 44 nM.

`CCOP(=O)(OCC)N(CC)c1ccc(C(O)(C(F)(F)F)C(F)(F)F)cc1` [Example 28, diethyl ethyl{4-[2,2,2-trifluoro-1-hydroxyl-1-(trifluoromethyl)ethyl]phenyl}amidophosphate] gave an IC50 in data set [1] of 90 nM.

On to `CC(C)(COP(=O)(O)OP(=O)(O)OC[C@H]1O[C@@H](n2cnc3c(N)ncnc32)[C@H](O)[C@@H]1OP(=O)(O)O)[C@@H](O)C(=O)NCCC(=O)NCCSC(=O)CC(=O)O` [Malonyl-CoA], for which the IC50 in data set [2] is 30 nM.

Take `CCCCCCCCCCCCCCOc1ccc(C(=O)O)o1` [TOFA, 5-(tetradecyloxy)-2-furoic acid]: in the data set with breast carcinoma cells, the malonyl-CoA level is 60 % of the control.
